The text below walks through data of ChEMBL document CHEMBL4251577, “Synthesis and antiproliferative activity of pyrrolo[2,3-b]pyridine derivatives bearing the 1,8-naphthyridin-2-one moiety” (Eur J Med Chem, 2018).

The subject of test [1] is A549. Nature of the test: cells. The following applies: Homo sapiens, A549, 72 h.
Description: Antiproliferative activity against human A549 cells after 72 hrs by MTT assay
Test [2] concerns HT-29. Briefly: cells. The following applies: Homo sapiens, HT-29, 72 h.
The test system of test [3] is NCI-H460. Briefly: Antiproliferative activity against human NCI-H460 cells after 72 hrs by MTT assay. The note with it: NCI-H460, 72 h. The class given is functional, cell-based. In general terms: Formazan colour is commonly taken as a measure of viable cells.
The subject of another test is U-87 MG. Nature of the test: Antiproliferative activity against human U87MG cells after 72 hrs by MTT assay. The class given is functional, cell-based, U-87MG ATCC.
For test [4], the system named is A549. Nature of the test: Potency index, ratio of foretinib IC50 to compound IC50 for antiproliferative activity against human A549 cells. The class given is functional.
The subject of test [5] is NCI-H460. Briefly: Potency index, ratio of foretinib IC50 to compound IC50 for antiproliferative activity against human NCI-H460 cells. The class given is functional.
In test [6] the target is Platelet-derived growth factor receptor beta (Homo sapiens, UniProt P09619). Briefly: Inhibition of PDGFRbeta (unknown origin) using poly(Glu, Tyr) 4:1 as substrate after 30 mins by HTRF assay. On the technique in general: Time-resolved FRET reads energy transfer from a long-lived donor to a nearby acceptor.
Sequence of Platelet-derived growth factor receptor beta (P09619 whole entry): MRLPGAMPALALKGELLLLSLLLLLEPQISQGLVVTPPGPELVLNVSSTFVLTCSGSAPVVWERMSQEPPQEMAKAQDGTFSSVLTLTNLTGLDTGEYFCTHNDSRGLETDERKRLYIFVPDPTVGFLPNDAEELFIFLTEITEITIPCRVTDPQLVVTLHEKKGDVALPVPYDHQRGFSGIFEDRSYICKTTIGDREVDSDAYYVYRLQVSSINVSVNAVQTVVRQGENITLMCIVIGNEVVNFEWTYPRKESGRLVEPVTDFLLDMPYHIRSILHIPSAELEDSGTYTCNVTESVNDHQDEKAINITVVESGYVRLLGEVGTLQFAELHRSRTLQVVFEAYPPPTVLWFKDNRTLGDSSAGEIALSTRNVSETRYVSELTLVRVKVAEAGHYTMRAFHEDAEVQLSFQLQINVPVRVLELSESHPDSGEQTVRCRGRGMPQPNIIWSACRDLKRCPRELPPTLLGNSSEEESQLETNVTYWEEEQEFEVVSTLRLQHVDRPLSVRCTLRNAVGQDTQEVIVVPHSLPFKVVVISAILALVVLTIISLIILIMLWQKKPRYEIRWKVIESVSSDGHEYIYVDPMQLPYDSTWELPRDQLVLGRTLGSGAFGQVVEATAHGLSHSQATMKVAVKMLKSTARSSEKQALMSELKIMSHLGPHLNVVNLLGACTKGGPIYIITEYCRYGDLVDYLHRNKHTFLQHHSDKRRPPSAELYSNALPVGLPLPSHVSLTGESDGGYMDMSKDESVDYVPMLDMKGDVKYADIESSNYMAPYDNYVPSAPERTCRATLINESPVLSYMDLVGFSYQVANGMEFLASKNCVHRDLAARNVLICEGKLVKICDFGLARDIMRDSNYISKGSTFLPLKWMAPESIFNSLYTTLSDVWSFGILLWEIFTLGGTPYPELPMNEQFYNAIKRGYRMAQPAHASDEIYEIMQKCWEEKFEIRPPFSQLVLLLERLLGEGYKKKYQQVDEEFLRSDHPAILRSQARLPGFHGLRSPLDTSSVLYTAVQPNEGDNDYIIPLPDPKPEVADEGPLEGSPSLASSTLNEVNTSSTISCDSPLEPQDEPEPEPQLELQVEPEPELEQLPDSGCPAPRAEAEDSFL
The subject of test [7] is HT-29. Nature of the test: Potency index, ratio of foretinib IC50 to compound IC50 for antiproliferative activity against human HT-29 cells. The class given is functional.
Test [8] concerns the target Mast/stem cell growth factor receptor Kit (Homo sapiens, UniProt P10721). Briefly: Inhibition of cKIT (unknown origin) using poly(Glu, Tyr) 4:1 as substrate after 30 mins by HTRF assay.
For test [9], the target named is Vascular endothelial growth factor receptor 2 (Homo sapiens, UniProt P35968). Nature of the test: Inhibition of VEGFR2 (unknown origin) using poly(Glu, Tyr) 4:1 as substrate after 30 mins by HTRF assay.
Sequence of Vascular endothelial growth factor receptor 2 (P35968 whole entry): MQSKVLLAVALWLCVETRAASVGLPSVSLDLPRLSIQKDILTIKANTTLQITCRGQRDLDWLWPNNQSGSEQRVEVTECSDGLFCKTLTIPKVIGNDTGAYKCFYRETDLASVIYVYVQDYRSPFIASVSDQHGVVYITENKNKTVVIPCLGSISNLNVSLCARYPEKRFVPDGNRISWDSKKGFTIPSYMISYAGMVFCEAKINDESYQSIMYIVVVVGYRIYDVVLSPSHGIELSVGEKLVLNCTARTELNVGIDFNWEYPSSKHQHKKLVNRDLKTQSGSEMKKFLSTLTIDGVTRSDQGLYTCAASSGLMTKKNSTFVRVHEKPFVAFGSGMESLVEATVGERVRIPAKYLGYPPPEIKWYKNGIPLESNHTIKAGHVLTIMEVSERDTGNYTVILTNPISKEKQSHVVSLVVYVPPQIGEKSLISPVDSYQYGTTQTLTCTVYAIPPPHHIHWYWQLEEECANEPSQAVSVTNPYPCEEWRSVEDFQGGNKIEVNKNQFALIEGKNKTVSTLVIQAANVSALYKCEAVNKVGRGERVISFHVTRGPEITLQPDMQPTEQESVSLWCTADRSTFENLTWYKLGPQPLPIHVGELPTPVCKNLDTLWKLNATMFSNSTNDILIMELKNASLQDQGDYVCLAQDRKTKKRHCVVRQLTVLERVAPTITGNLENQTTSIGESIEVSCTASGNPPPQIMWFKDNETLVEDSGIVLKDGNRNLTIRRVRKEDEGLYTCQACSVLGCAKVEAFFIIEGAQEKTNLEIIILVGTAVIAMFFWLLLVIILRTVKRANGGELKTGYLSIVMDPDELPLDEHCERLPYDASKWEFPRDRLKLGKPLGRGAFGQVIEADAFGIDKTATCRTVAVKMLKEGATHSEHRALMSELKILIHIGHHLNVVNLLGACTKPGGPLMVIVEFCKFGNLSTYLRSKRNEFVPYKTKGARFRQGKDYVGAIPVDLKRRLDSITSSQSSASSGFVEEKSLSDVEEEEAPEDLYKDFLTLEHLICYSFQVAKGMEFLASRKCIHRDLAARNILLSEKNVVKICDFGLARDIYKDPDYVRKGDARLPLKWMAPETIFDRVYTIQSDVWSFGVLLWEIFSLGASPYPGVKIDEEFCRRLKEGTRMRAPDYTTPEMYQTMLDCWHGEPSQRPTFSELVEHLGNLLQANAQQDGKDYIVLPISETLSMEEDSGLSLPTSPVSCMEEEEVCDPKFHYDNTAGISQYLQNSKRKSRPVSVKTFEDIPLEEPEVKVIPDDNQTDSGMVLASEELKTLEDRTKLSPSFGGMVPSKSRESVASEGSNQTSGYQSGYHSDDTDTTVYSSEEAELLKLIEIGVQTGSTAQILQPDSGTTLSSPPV
Test [10] addresses T1, Receptor-type tyrosine-protein kinase FLT3 (Homo sapiens, UniProt P36888).
T1 sequence (P36888 whole entry): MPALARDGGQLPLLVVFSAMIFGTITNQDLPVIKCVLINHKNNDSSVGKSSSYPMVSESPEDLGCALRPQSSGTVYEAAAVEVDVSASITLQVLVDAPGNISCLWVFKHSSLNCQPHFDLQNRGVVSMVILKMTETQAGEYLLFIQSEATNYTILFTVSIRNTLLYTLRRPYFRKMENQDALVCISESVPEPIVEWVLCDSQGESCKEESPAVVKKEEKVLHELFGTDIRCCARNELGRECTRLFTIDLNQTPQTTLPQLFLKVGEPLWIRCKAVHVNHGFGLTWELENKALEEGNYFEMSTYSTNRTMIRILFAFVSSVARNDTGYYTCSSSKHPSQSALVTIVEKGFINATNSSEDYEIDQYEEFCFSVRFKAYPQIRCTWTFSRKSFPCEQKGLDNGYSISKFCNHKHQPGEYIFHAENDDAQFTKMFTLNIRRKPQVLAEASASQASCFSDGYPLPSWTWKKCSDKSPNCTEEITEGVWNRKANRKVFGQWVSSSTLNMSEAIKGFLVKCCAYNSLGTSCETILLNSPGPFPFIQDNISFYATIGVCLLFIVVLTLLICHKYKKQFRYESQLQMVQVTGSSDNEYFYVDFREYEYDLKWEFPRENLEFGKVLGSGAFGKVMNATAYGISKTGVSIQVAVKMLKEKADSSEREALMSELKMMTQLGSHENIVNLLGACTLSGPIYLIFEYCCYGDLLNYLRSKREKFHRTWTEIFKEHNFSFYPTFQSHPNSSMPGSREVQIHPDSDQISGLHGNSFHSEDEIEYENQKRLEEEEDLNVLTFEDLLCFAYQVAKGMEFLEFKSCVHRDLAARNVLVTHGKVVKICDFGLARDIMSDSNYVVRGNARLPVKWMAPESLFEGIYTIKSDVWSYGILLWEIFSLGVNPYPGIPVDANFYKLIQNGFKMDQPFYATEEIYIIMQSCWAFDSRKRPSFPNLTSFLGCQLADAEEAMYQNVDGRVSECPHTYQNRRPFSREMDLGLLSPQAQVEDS
Nature of the test: Inhibition of Flt-3 (unknown origin) using poly(Glu, Tyr) 4:1 as substrate after 30 mins by HTRF assay.

In test [11] the target is Epidermal growth factor receptor (Homo sapiens, UniProt P00533). Nature of the test: Inhibition of EGFR (unknown origin) using poly(Glu, Tyr) 4:1 as substrate after 30 mins by HTRF assay.
Sequence of Epidermal growth factor receptor (P00533 whole entry): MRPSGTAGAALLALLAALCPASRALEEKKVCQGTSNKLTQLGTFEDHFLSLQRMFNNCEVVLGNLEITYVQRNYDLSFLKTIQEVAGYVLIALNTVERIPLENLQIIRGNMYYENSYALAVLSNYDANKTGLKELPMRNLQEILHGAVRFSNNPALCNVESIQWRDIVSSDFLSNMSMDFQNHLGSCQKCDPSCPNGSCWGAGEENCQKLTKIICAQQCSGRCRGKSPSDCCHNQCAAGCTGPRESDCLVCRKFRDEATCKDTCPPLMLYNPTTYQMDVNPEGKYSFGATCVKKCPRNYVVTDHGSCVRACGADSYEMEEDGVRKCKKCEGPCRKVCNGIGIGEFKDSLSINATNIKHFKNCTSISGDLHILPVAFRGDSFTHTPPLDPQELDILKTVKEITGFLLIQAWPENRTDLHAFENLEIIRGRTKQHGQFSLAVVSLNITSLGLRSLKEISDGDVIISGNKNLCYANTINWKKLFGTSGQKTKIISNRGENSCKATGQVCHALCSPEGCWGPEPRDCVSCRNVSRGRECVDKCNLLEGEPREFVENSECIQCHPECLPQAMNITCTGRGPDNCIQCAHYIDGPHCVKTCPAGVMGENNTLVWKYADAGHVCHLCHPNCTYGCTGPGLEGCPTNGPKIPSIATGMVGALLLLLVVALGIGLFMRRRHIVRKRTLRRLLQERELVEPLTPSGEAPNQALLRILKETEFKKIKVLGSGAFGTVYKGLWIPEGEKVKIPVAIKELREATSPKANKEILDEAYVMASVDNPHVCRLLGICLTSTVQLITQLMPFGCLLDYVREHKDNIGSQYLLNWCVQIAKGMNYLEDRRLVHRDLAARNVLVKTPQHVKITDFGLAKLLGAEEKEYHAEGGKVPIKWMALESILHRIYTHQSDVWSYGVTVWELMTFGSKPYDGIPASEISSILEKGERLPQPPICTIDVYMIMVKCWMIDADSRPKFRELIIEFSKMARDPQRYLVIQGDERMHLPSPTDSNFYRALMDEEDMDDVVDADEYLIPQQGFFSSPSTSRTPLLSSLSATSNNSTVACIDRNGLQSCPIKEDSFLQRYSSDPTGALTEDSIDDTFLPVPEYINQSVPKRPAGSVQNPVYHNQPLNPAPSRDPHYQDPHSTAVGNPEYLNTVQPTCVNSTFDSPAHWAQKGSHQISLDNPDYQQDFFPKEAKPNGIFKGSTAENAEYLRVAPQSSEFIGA
In test [12] the target is Hepatocyte growth factor receptor (Homo sapiens, UniProt P08581). Nature of the test: Inhibition of cMET (unknown origin) using poly(Glu,Tyr) 4:1 substrate after 30 mins by HTFR analysis.

Sequence of Mast/stem cell growth factor receptor Kit (P10721 whole entry): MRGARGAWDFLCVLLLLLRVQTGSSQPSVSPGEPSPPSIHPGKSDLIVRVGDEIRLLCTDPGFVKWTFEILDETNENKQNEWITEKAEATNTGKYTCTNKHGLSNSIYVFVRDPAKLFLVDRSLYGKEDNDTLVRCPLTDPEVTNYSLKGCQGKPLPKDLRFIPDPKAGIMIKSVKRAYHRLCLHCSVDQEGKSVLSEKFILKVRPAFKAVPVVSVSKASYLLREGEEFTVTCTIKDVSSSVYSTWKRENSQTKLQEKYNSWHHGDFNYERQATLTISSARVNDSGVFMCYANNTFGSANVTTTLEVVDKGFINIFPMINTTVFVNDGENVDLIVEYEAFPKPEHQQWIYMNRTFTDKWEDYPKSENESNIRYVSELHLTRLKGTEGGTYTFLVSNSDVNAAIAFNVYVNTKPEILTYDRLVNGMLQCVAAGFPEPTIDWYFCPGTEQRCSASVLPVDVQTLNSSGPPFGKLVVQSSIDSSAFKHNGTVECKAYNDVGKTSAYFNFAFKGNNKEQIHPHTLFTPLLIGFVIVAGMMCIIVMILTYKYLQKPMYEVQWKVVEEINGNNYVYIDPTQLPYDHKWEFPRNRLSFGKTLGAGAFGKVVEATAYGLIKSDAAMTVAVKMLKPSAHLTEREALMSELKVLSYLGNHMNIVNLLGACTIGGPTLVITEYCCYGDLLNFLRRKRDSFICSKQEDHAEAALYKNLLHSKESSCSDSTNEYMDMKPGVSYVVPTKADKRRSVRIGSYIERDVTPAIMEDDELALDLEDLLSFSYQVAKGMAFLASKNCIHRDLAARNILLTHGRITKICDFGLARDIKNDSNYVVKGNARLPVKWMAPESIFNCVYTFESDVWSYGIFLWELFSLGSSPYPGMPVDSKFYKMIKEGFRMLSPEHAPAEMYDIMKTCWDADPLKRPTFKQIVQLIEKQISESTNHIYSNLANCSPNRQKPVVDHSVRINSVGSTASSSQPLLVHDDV

Broadly, the IC50 is the concentration needed to halve the response being measured. A high value points to a need for much substance. On to `Cn1ccc2c(Oc3ccc(NC(=O)c4cc5cccnc5n(-c5ccc(F)c(Cl)c5)c4=O)cc3F)ccnc21`, for which the 50% inhibitory concentration (IC50) in the test with A549 [1] was 3560 nM; in the test with HT-29 [2], 2460 nM.
For `O=C(Nc1ccc(Oc2ccnc3[nH]ccc23)cc1)c1cc2cccnc2n(-c2ccc(Br)cc2)c1=O`, in that order: 280 nM and 270 nM.
With `COc1ccc(-n2c(=O)c(C(=O)Nc3ccc(Oc4ccnc5[nH]ccc45)cc3)cc3cccnc32)cc1`, the IC50 turned out to be 930 nM with A549 [1], 960 nM in the test on NCI-H460 [3], 2350 nM in the test with U-87 MG and 1260 nM in the test on HT-29 [2].
Consider `O=C(Nc1ccc(Oc2ccnc3[nH]ccc23)c(F)c1)c1cc2cccnc2n(-c2ccc(Cl)cc2)c1=O`, for which the figures for the IC50 in the test with A549 [1] and in the test with HT-29 [2] were 110 nM and 82 nM, respectively.
For `O=C(Nc1ccc(Oc2ccnc3[nH]ccc23)cc1)c1cc2cccnc2n(-c2ccc(F)c(Cl)c2)c1=O`, the IC50 in the test with A549 [1] turned out to be 680 nM; in the test on HT-29 [2], 560 nM.
For `Cn1ccc2c(Oc3ccc(NC(=O)c4cc5cccnc5n(-c5ccc(Cl)cc5)c4=O)cc3)ccnc21`, in that order: 630 nM and 730 nM.
On to `Cn1ccc2c(Oc3ccc(NC(=O)c4cc5cccnc5n(-c5ccc(C(F)(F)F)cc5Cl)c4=O)cc3)ccnc21`, for which the IC50 amounted to 8250 nM in the test on A549 [1], 6950 nM in the test with NCI-H460 [3], 12600 nM in the test with U-87 MG and 6050 nM in the test with HT-29 [2].
Turning to `Cn1ccc2c(Oc3ccc(NC(=O)c4cc5cccnc5n(-c5ccc(F)c(Cl)c5)c4=O)cc3)ccnc21`, the IC50 in the test with A549 [1] turned out to be 820 nM; in the test on NCI-H460 [3], 1210 nM; with U-87 MG, 2350 nM; in the test with HT-29 [2], 1210 nM.
With `O=C(Nc1ccc(Oc2ccnc3[nH]ccc23)cc1)c1cc2cccnc2n(-c2ccccc2)c1=O`, the half-maximal inhibitory concentration (IC50) in the test with A549 [1] is 360 nM; with NCI-H460 [3] it was 380 nM; in the test on U-87 MG, 1580 nM; with HT-29 [2] it was 290 nM.
In the case of `O=C(Nc1ccc(Oc2ccnc3[nH]ccc23)cc1)c1cc2cccnc2n(-c2ccc(F)cc2)c1=O`, the half-inhibitory concentration (IC50) with A549 [1] is 210 nM; with NCI-H460 [3], 190 nM; with U-87 MG, 1360 nM; with HT-29 [2] it was 160 nM.
Regarding `Cn1ccc2c(Oc3ccc(NC(=O)c4cc5cccnc5n(-c5ccccc5)c4=O)cc3)ccnc21`, the half-maximal inhibitory concentration (IC50) in the test on A549 [1] was determined as 850 nM; in the test with NCI-H460 [3] it was 560 nM; in the test with U-87 MG, 5030 nM; in the test on HT-29 [2] it was 620 nM.
The like results for `Cn1ccc2c(Oc3ccc(NC(=O)c4cc5cccnc5n(-c5ccc(Br)cc5F)c4=O)cc3F)ccnc21` were, in that order, 2690 nM, 3150 nM, 6470 nM and 3290 nM.
The like results for `O=C(Nc1ccc(Oc2ccnc3[nH]ccc23)c(F)c1)c1cc2cccnc2n(-c2ccc(Br)cc2)c1=O` were, in that order, 210 nM, 260 nM, 1510 nM and 120 nM.
The like results for `Cn1ccc2c(Oc3ccc(NC(=O)c4cc5cccnc5n(-c5ccc(F)cc5)c4=O)cc3)ccnc21` were, in that order, 210 nM, 260 nM, 2120 nM and 250 nM.
Take `O=C(Nc1ccc(Oc2ccnc3[nH]ccc23)cc1)c1cc2cccnc2n(-c2ccc(Br)cc2F)c1=O`: the IC50 in the test on A549 [1] was found to be 1570 nM; in the test with HT-29 [2], 2360 nM.
Take `O=C(Nc1ccc(Oc2ccnc3[nH]ccc23)c(F)c1)c1cc2cccnc2n(-c2ccc(F)c(Cl)c2)c1=O`: the IC50 was 630 nM in the test on A549 [1], 1050 nM with NCI-H460 [3], 5230 nM with U-87 MG and 310 nM in the test on HT-29 [2].
With `Cn1ccc2c(Oc3ccc(NC(=O)c4cc5cccnc5n(-c5ccc(Br)cc5)c4=O)cc3)ccnc21`, the half-inhibitory concentration (IC50) with A549 [1] was 680 nM; with HT-29 [2], 690 nM.
In the case of `O=C(Nc1ccc(Oc2ccnc3[nH]ccc23)cc1)c1cc2cccnc2n(-c2ccc(Cl)cc2)c1=O`, the IC50 in the test on A549 [1] is 290 nM; in the test on NCI-H460 [3], 290 nM; with U-87 MG, 3370 nM; in the test on HT-29 [2] it was 280 nM.
In the case of `Cn1ccc2c(Oc3ccc(NC(=O)c4cc5cccnc5n(-c5ccc(Br)cc5F)c4=O)cc3)ccnc21`, the IC50 with A549 [1] came out at 1630 nM; in the test with HT-29 [2], 2580 nM.
On to `O=C(Nc1ccc(Oc2ccnc3[nH]ccc23)c(F)c1)c1cc2cccnc2n(-c2ccccc2)c1=O`, for which the 50% inhibitory concentration (IC50) turned out to be 190 nM in the test with A549 [1], 180 nM in the test on NCI-H460 [3], 1260 nM with U-87 MG and 160 nM in the test with HT-29 [2].
Regarding `O=C(Nc1ccc(Oc2ccnc3[nH]ccc23)c(F)c1)c1cc2cccnc2n(-c2ccc(Br)cc2F)c1=O`, the 50% inhibitory concentration (IC50) with A549 [1] was found to be 460 nM; in the test with HT-29 [2], 820 nM.
`Cn1ccc2c(Oc3ccc(NC(=O)c4cc5cccnc5n(-c5ccc(F)cc5)c4=O)cc3F)ccnc21`: the half-maximal inhibitory concentration (IC50) in the test on A549 [1] was 280 nM; in the test on NCI-H460 [3], 250 nM; in the test on U-87 MG, 1320 nM; with HT-29 [2], 160 nM.
On to `COc1ccc(-n2c(=O)c(C(=O)Nc3ccc(Oc4ccnc5c4ccn5C)cc3)cc3cccnc32)cc1`, for which the IC50 in the test with A549 [1] was 3460 nM; in the test on NCI-H460 [3] it was 1920 nM; with U-87 MG, 5150 nM; in the test on HT-29 [2], 2050 nM.
On to `O=C(Nc1ccc(Oc2ccnc3[nH]ccc23)c(F)c1)c1cc2cccnc2n(-c2ccc(F)cc2)c1=O`, for which the “Ratio IC50” value is 5.2 in the test on A549 [4], 3.2 in the test with NCI-H460 [5] and 7.2 with HT-29 [7]. The half-maximal inhibitory concentration (IC50) in the test with A549 [1] was 62 nM; with NCI-H460 [3], 87 nM; in test [6], 1.81 nM; in [8], 684 nM; in test [9], 152 nM; with U-87 MG it was 620 nM. Further, the concentration for half-maximal inhibition (IC50) in [10] was found to be 1.16 nM; in test [11] it was 633 nM; with HT-29 [2], 36 nM; in [12], 1.92 nM.
Regarding `O=C(Nc1ccc(Oc2ccnc3[nH]ccc23)c(F)c1)c1cc2cccnc2n(-c2ccc(C(F)(F)F)cc2Cl)c1=O`, the half-maximal inhibitory concentration (IC50) in the test on A549 [1] came out at 1020 nM; in the test with HT-29 [2], 1360 nM.
On to `O=C(Nc1ccc(Oc2ccnc3[nH]ccc23)cc1)c1cc2cccnc2n(-c2ccc(C(F)(F)F)cc2Cl)c1=O`, for which the IC50 in the test with A549 [1] turned out to be 3230 nM; in the test with NCI-H460 [3], 1950 nM; with U-87 MG it was 6030 nM; in the test with HT-29 [2], 2160 nM.
Turning to `COc1ccc(-n2c(=O)c(C(=O)Nc3ccc(Oc4ccnc5[nH]ccc45)c(F)c3)cc3cccnc32)cc1`, the figures for the IC50 in the test with A549 [1] and in the test on HT-29 [2] were 610 nM and 540 nM, respectively.
Consider `COc1ccc(-n2c(=O)c(C(=O)Nc3ccc(Oc4ccnc5c4ccn5C)c(F)c3)cc3cccnc32)cc1`, for which the IC50 with A549 [1] was 2750 nM; in the test on HT-29 [2] it was 1290 nM.
For `Cn1ccc2c(Oc3ccc(NC(=O)c4cc5cccnc5n(-c5ccc(Cl)cc5)c4=O)cc3F)ccnc21`, in that order: 350 nM and 220 nM.
On to `Cn1ccc2c(Oc3ccc(NC(=O)c4cc5cccnc5n(-c5ccccc5)c4=O)cc3F)ccnc21`, for which the IC50 in the test with A549 [1] came to 430 nM; with NCI-H460 [3] it was 550 nM; in the test on U-87 MG it was 3590 nM; in the test on HT-29 [2], 510 nM.
The like results for `Cn1ccc2c(Oc3ccc(NC(=O)c4cc5cccnc5n(-c5ccc(Br)cc5)c4=O)cc3F)ccnc21` were, in that order, 390 nM, 420 nM, 2580 nM and 330 nM.
For `Cn1ccc2c(Oc3ccc(NC(=O)c4cc5cccnc5n(-c5ccc(C(F)(F)F)cc5Cl)c4=O)cc3F)ccnc21`, in that order: 3530 nM, 6010 nM, 10200 nM and 5830 nM.
